The values that follow come from ChEMBL document CHEMBL1156067, “Pyrimidine-based antagonists of h-MCH-R1 derived from ATC0175: in vitro profiling and in vivo evaluation” (Bioorg Med Chem Lett, 2009).

One may read the IC50 as the point on the concentration scale where inhibition reaches its midpoint. In general, pA2 refers to the negative logarithm of the molar antagonist concentration that doubles the agonist concentration needed for the same response.

Structures are written as SMILES.

This assay has as its target Melanin-concentrating hormone receptor 1 (Homo sapiens, UniProt Q99705). Kind of assay: Antagonist activity at CART form of human MCH1 receptor expressed in HEK293 cells coexpressing Galphaq assessed as inhibition of MCH-induced intracellular calcium level by FLIPR assay. The format is functional, cell-based.

Sequence of Melanin-concentrating hormone receptor 1 (Q99705 whole entry, looked up): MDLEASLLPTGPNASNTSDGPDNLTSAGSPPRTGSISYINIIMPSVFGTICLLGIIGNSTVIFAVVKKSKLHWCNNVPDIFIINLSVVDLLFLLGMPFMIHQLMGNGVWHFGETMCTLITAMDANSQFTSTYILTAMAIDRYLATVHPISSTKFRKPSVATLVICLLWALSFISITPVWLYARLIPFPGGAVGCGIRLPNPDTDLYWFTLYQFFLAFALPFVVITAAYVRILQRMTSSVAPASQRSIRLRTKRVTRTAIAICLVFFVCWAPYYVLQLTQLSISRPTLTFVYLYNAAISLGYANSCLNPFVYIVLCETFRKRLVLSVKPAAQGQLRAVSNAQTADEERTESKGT

In the case of `CN(C)CC1CCc2cc(NC(=O)c3ccc(-c4ccc(F)cc4)cc3)ccc2C1` (centres undefined), the concentration for half-maximal inhibition (IC50) came to 5.5 nM. Same read-out and setting: then `Cc1cnc(N[C@H]2CC[C@@H](CNC(=O)c3cc(Cl)cc(Cl)c3)CC2)nc1N(C)C`, with 4 nM; and `Cc1cccc(C(=O)N[C@H]2CC[C@@H](Nc3nc(C)cc(N(C)C)n3)CC2)c1`, with 9.6 nM; and `Cc1cnc(N[C@H]2CC[C@@H](NC(=O)c3ccc(F)c(F)c3)CC2)nc1N(C)C`, with 2 nM. `CCc1cnc(N[C@H]2CC[C@@H](NC(=O)c3ccc(F)c(F)c3)CC2)nc1N(C)C`: the IC50 came to 100 nM. The same measure, in the same setting: then `Cc1cc(N(C)C)nc(N[C@H]2CC[C@@H](CNC(=O)c3ccc(F)c(F)c3)CC2)n1`, with 210 nM; and `CNc1nc(N[C@H]2CC[C@@H](CNC(=O)c3cc(C(F)(F)F)cc(C(F)(F)F)c3)CC2)ncc1C`, with 200 nM; and `Cc1cc(N(C)C)nc(N[C@H]2CC[C@@H](NC(=O)c3ccc(F)c(F)c3)CC2)n1`, with 2.5 nM. For `Cc1cc(N(C)C)nc(N[C@H]2CC[C@@H](NC(=O)c3cccc(Cl)c3)CC2)n1`, the IC50 came out at 6.5 nM. On the same count and under the same terms, then `Cc1cc(N(C)C)nc(N[C@H]2CC[C@@H](NC(=O)c3ccc(OC(F)(F)F)cc3)CC2)n1`, with 230 nM; and `COc1cccc(C(=O)N[C@H]2CC[C@@H](Nc3nc(C)cc(N(C)C)n3)CC2)c1`, with 7.6 nM; and `CN(C)c1cc(N(C)C)nc(N[C@H]2CC[C@@H](NC(=O)c3ccc(F)c(F)c3)CC2)n1`, with 58 nM. Same read-out and setting: as for `Cc1cnc(N[C@H]2CC[C@@H](CNC(=O)c3cccc(C(F)(F)F)c3)CC2)nc1N(C)C`, the figure is 26 nM. As for `CCN(C)c1nc(N[C@H]2CC[C@@H](NC(=O)c3ccc(F)c(F)c3)CC2)ncc1C`, the IC50 came out at 46 nM. The same measure, in the same setting: then `Cc1nc(N[C@H]2CC[C@@H](NC(=O)c3ccc(F)c(F)c3)CC2)nc(N(C)C)c1C`, with 2.3 nM; and `Cc1cc(N(C)C)nc(N[C@H]2CC[C@@H](CNC(=O)c3cc(Cl)cc(Cl)c3)CC2)n1`, with 64 nM.

For `Cc1cnc(N[C@H]2CC[C@@H](CNC(=O)c3cc(C(F)(F)F)cc(C(F)(F)F)c3)CC2)nc1N`, the IC50 came to 600 nM.

Turning to `Cc1cc(N(C)C)nc(N[C@H]2CC[C@@H](NC(=O)c3ccc(F)cc3)CC2)n1`, the IC50 is 25 nM.

With `COCC1=C(C(=O)OC)[C@H](c2ccc(F)c(F)c2)N(C(=O)NCCCN2CCC(c3cccc(NC(C)=O)c3)CC2)C(=O)N1` [SNAP-7941], the pA2 is given as 9.24.
